The test system of series [1] is colorectal carcinoma (HT-29) cells. The experiment in a line: Antiproliferative MTT assay, HT-29. It counts as cell-based, human. The following applies: for IC50: Homo sapiens, HT-29, 72 h, 72 h incubation, MTT, mean ± SD; for SI (HT-29): SI = [IC50 HFF]/[IC50 HT-29]. The method in brief: (§1)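 Cancer lines seeded at 3000 cells/well and HFF fibroblasts at 5000 cells/well in DMEM or MEM with 10% FBS, then exposed to compounds (0.01–100 µM) for 72 h at 37 °C. Growth measured by MTT; IC50 from dose–response curves by linear regression, tetraplicates in two experiments.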

In series [2] the test system is hepatocellular carcinoma (HepG2) cells. Kind of series: Antiproliferative MTT assay, HepG2. It counts as cell-based, human. To be noted: for IC50: Homo sapiens, HepG2, 72 h, 72 h incubation, MTT, mean ± SD; for SI (HepG2): SI = [IC50 HFF]/[IC50 HepG2]. Put shortly: as §1
The test system of series [3] is MDCKII-MDR1 cells (P-glycoprotein). The experiment in a line: MDCKII-MDR1 permeability assay. The series is classed as in vitro ADME, canine cells with over-expressed human MDR1 gene. The following applies: for Permeability: permeability class. As for the experimental part:
(§2) MDCKII-hMDR1 cells were obtained from Solvo Biotechnology, Hungary. DMEM, fetal bovine serum, Glutamax-100, Antibiotic/Antimycotic, DMSO, Dulbecco’s phosphate-buffered saline, and MEM Non-essential amino acids were purchased from Sigma (St. Louis, MO, USA). Bi-directional permeability and P-glycoprotein substrate assessments were carried out in Madin-Darby canine epithelial cells with the over-expressed human MDR1 gene (MDCKII-MDR1), coding for P-glycoprotein. Experimental procedures, as well as cell culture conditions, were the same as previously described. Briefly, compounds (10 µM, 1% DMSO v/v) in duplicate were incubated at 37 °C for 60 min with cell monolayer on 24-well Millicell inserts (Millipore, Burlington, MA, USA) with and without the P-glycoprotein inhibitor Elacridar (2 µM, International Laboratory, San Francisco, CA, USA). The inhibition of P-glycoprotein was verified by amprenavir (Moravek Biochemicals Inc, Brea, CA, USA) and monolayer integrity using Lucifer yellow (Sigma, St. Louis, MO, USA). LC-MS/MS measured compound concentrations and Lucifer yellow was measured on an Infinite F500 (Tecan, Männedorf, CH, Switzerland) using excitation of 485 nm and emission of 530 nm.
(§3) All samples were quantified using tandem mass spectrometry coupled to liquid chromatography. Samples were analyzed on a Sciex API4000 Triple Quadrupole Mass Spectrometer (Sciex, Division of MDS Inc., Toronto, Canada) coupled to a Shimadzu Nexera X2 UHPLC frontend (Kyoto, Japan). Samples were injected onto a UHPLC column (HALO2 C18, 2.1 × 20 mm, 2 µm or Luna Omega 1.6 µm Polar C18 100A, 30 × 2.1 mm) and eluted with a gradient at 50 °C. The mobile phase was composed of acetonitrile/water mixture (9/1, with 0.1% formic acid) and 0.1% formic acid in deionized water. The flow rate was 0.7 mL/min under gradient conditions, leading to a total run time of 1.5–2 min. A positive ion mode with turbo spray, an ion source temperature of 550 °C, and a dwell time of 150 ms were utilized for mass spectrometric detection. Quantitation was performed using multiple reaction monitoring (MRM) at the specific transitions for each compound.

Series [4] has as its system P-glycoprotein (human MDR1). Kind of series: MDCKII-MDR1 permeability assay. It counts as in vitro ADME, canine cells with over-expressed human MDR1 gene. The following applies: dog, MDCK-MDR1; for Papp A→B at 60 min, 10 µM / Papp B→A at 60 min, 10 µM: 37 °C; for efflux ratio at 60 min, 10 µM: <2 no efflux, >2 active efflux. As for the experimental part: as §2, §3
Series [5] deals with normal skin fibroblasts (HFF-1). Kind of series: Cytotoxicity MTT assay, normal skin fibroblasts. It counts as cell-based, human. To be noted: Homo sapiens, HFF-1, 72 h, 72 h incubation, mean ± SD. The method in brief:
as §1

For series [6], the system named is breast adenocarcinoma (MCF7) cells. Kind of series: Antiproliferative MTT assay, MCF-7. It counts as cell-based, human. The following applies: Homo sapiens, MCF7; 72 h incubation, MTT; mean ± SD. The method in brief:
as §1

The subject of series [7] is pancreatic ductal adenocarcinoma (CFPAC-1) cells. Kind of series: Antiproliferative MTT assay, CFPAC-1. The series is classed as cell-based, human. The following applies: for IC50: Homo sapiens, CFPAC-1, 72 h, 72 h incubation, MTT, mean ± SD; for SI (CFPAC-1): SI = [IC50 HFF]/[IC50 CFPAC-1]. The method in brief:
as §1

Series [8] is described as follows: Metabolic stability in mouse liver microsomes. The following applies: for Clearance Class.: mouse liver microsomes; for Clearance Values (CL): predicted in vivo hepatic clearance from mouse liver microsome t1/2, 1 µM compound. It counts as in vitro ADME.
Description: Mouse liver microsomes were obtained from Corning Life Sciences (Corning, NY, USA). DMSO, nicotinamide adenine dinucleotide phosphate (NADP), glucose-6-phosphate, glucose-6-phosphate dehydrogenase, magnesium chloride, propranolol, caffeine, diclofenac, and phosphate-buffered saline (PBS) were purchased from Sigma (St. Louis, MO, USA). Acetonitrile (ACN) and methanol (MeOH) were obtained from Merck (Darmstadt, Germany). Testosterone was purchased from Steraloids (Newport, RI, USA). Metabolic stability was assessed in mouse liver microsomes. Compounds (final concentration of 1 µM, 0.03% DMSO v/v) were incubated in duplicate in phosphate buffer (50 mM, pH 7.4) at 37 °C together with mouse liver microsomes in the absence and presence of the NADPH cofactor (0.5 mM nicotinamide adenine dinucleotide phosphate, 5 mM glucose-6-phosphate, 1.5 U/mL glucose-6-phosphate dehydrogenase, and 0.5 mM magnesium chloride). Incubation and sampling were performed on a Freedom EVO 200 (Tecan, Männedorf, CH, Switzerland) at […], 10, 20, 30, 45, and 60 min. The reaction was quenched using 3 volumes of a mixture of ACN/MeOH (2:1) containing internal standard (diclofenac), centrifuged, and the supernatants were analyzed using LC-MS/MS. The metabolic activity of the microsomes was verified via simultaneous analysis of several controls including testosterone, propranolol, and caffeine. The in vitro half-life (t1/2) was calculated using GraphPad Prism (v9.0 software) non-linear regression of % of parent compound remaining versus time. In vitro clearance, expressed as µL/min/mg, was estimated from the in vitro half-life (t1/2) and normalized for the protein amount in the incubation mixture, assuming 52.5 mg of protein per gram of liver and using constant values for mouse liver weight/body weight [87.5 g/kg] and mouse liver blood flow (LBF) [131 mL/min/kg].
as §3

Where only a bound is given, the exact number is not on record here.

With `OCC(c1ccc(Br)cc1)n1cc(Cn2ccc3ccccc32)nn1` (stereo not drawn) [Compound 29a, 1-((1-(2-Hydroxy-1-(4-bromophenyl)ethyl)-1H-1,2,3-triazol-4-yl)methyl)-1H-indole], the IC50 in series [1] is 34 ± 0.3 µM. In addition, the midpoint of inhibition in series [2], the IC50, lay at 29 ± 0.8 µM. Also, the Permeability result in series [3] is “HIGH”. In addition, in series [4], the Papp A→B at 60 min, 10 µM came to 10 ×10⁻⁶ cm/s; the Papp B→A at 60 min, 10 µM was found to be 25.5 ×10⁻⁶ cm/s; the efflux ratio at 60 min, 10 µM turned out to be 2.6. For the same compound, in series [5], the IC50 is greater than 100 µM. In series [6], this compound yielded an IC50 of 24 ± 1 µM. Moreover, in series [7], the IC50 stood at 39 ± 2.8 µM and the “SI (CFPAC-1)” value is listed as greater than 2.6. In addition, in series [8], the “Clearance Class.” value is given as “MODERATE (30–70% moderate)” and the “Clearance Values (CL)” value was 43%.

With `OC(Cn1cc(Cn2ccc3ccccc32)nn1)c1ccc(Br)cc1` (stereo not drawn) [Compound 29b, 1-((1-(2-Hydroxy-2-(4-bromophenyl)ethyl)-1H-1,2,3-triazol-4-yl)methyl)-1H-indol], the IC50 in series [1] came out at 36 ± 1.4 µM; in series [2], 35 ± 1.8 µM; in series [5] it was 25 ± 4.1 µM; in series [6], 29 ± 14 µM; in series [7], 43 ± 9.1 µM. In addition, the Permeability entry in series [3] is “highest permeability and HIGH”. Moreover, the Papp A→B at 60 min, 10 µM in series [4] is 18.3 ×10⁻⁶ cm/s. The compound also had a basolateral-to-apical permeability (Papp B→A) at 60 min, 10 µM in series [4] of 28.6 ×10⁻⁶ cm/s. Moreover, the efflux ratio at 60 min, 10 µM in series [4] is 1.7. Also, the “SI (CFPAC-1)” value in series [7] is given as 0.6. Also, the “Clearance Values (CL)” value in series [8] is 92%.

Consider `OC(Cn1cc(Cn2cnc3c(Cl)ncnc32)nn1)c1ccc(Br)cc1` (stereo not drawn) [Compound 39b, 6-Chloro-9-((1-(2-hydroxy-2-(4-bromophenyl)ethyl)-1H-1,2,3-triazol-4-yl)methyl)-9H-purine], for which, in series [1], the IC50 was found to be 50 ± 0.6 µM and the “SI (HT-29)” value is on record as 0.6. Further, in series [2], half-maximal inhibition (IC50) was put at 44 ± 8.1 µM and the “SI (HepG2)” value amounted to 0.7. Moreover, the Permeability result in series [3] is given as “MODERATE”. Besides, in series [4], the Papp A→B at 60 min, 10 µM was found to be 3.1 ×10⁻⁶ cm/s; the Papp B→A at 60 min, 10 µM was 69.6 ×10⁻⁶ cm/s; the efflux ratio at 60 min, 10 µM worked out at 22.5. 30 ± 2.7 µM corresponded to half-maximal inhibition in series [5] (IC50). In addition, in series [6], half-maximal inhibition (IC50) required 21 ± 14 µM. The same compound yielded an IC50 in series [7] of 15 ± 1 µM.

Consider `OC(Cn1cc(Cn2cnc3c(Cl)ncnc32)nn1)c1ccc(C(F)(F)F)cc1` (stereo not drawn) [Compound 40b, 6-Chloro-9-((1-(2-hydroxy-2-(4-(trifluoromethyl)phenyl)ethyl)-1H-1,2,3-triazol-4-yl)methyl)-9H-purine], for which the IC50 came to 14 ± 8.1 µM in series [1]; 15 ± 9 µM in series [2]; 8 ± 4.8 µM in series [5]; 28 ± 6.7 µM in series [6]; 25 ± 6.4 µM in series [7]. Also, the “SI (HT-29)” value in series [1] was found to be 0.6. For the same compound, in series [2], the “SI (HepG2)” value was 0.5. The “Efflux Ratio” value in series [3] (<2 no efflux, >2 active efflux) is listed as “higher efflux values”. The “Clearance Class.” value in series [8] is listed as “low clearance”.

Turning to `OCC(c1ccc(Br)cc1)n1cc(Cn2cnc3c(Cl)nccc32)nn1` (stereo not drawn) [Compound 49a, 4-Chloro-1-((1-(2-hydroxy-1-(4-bromophenyl)ethyl)-1H-1,2,3-triazol-4-yl)methyl)-1H-imidazo[4,5-c]pyridine], the IC50 in series [1] came to 77 ± 1.1 µM; in series [2], 66 ± 22.8 µM; in series [5], 90 ± 4.04 µM; in series [6] it was 77 ± 3 µM; in series [7], 77 ± 0.5 µM. In addition, in series [2], the “SI (HepG2)” value is listed as 1.4. The Papp A→B at 60 min, 10 µM in series [4] is no more than 2 ×10⁻⁶ cm/s. In addition, the Papp B→A at 60 min, 10 µM in series [4] is 41.1 ×10⁻⁶ cm/s. Besides, in series [4], the efflux ratio at 60 min, 10 µM amounted to 41.4. In series [4] (permeability class), the Papp at 60 min, 10 µM is no more than 2 ×10⁻⁶ cm/s. Besides, in series [8], the “Clearance Class.” value was “LOW (<30% low)”.

The values are drawn from publication PMC11940194, “Synthesis, Antiproliferative Activity, and ADME Profiling of Novel Racemic and Optically Pure Aryl-Substituted Purines and Purine Bioisosteres” (Biomolecules, 2025).
